Results published in paper PMC10447287, “Optimisation of Pharmaceutical Cocrystal Dissolution Performance through a Synergistic Precipitation Inhibition” (Pharmaceutical Research, 2023).

Tests used:
[1] = FFA-NIC cocrystal solubility and phase solubility diagrams (PSD); type: physicochemical; conditions: for FFA concentration at eutectic point / Ksp / SAB: 37°C
Procedure: For a 1:1 AB cocrystal without consideration of ionization of each component, its molar solubility SAB is calculated as [21]1 SAB=Ksp=CACB where Ksp is the solubility product of the AB cocrystal, and CA and CB (μmol/mL) are the molar concentrations of A and B where the solution is in equilibrium with the solid residues including cocrystal solids. When the solution is in equilibrium with both the drug and cocrystal solids, it is called the eutectic point where the component concentrations in solution are designated as CA_eut and CB_eut .
In order to determine the FFA-NIC cocrystal solubility, the physical mixtures of the FFA I and NIC solids and a constant 10 mL of the medium (i.e., DDW or PBS pH 4.5 in the absence and presence of a predissolved polymer, i.e., 0.2 mg/mL PVP-VA, 1 mg/mL PEG or 0.2 mg/mL SLP, or a combination, i.e., 0.2 mg/mL PVP-VA + 1 mg/mL PEG, 0.2 mg/mL PVP-VA + 0.2 mg/mL SLP), representing 10% w/w and 90% w/w of the total weight of a sample, were used. More than eight different ratios of the FFA I and NIC solids in the physical mixtures (Table S1 in the supporting materials) were prepared and then each of them was transferred into a 20 mL glass vial containing a magnetic stirrer (3 × 20 mm) with 10 mL of the solution prepared above. The samples were placed in the Polar Bear Plus Crystal (Cambridge Reactor Design Ltd, UK) and kept at 37 ± 0.5°C for 24 h. After that, the supernatant of each of the samples was separated from excess solids by centrifugation at 13,000 RPM for 1 min in an MSE Micro Centaur. HPLC was used to determine the concentrations of FFA and NIC. Solid residues obtained from the experiments were dried at room temperature and analysed by PXRD. If the FFA-NIC cocrystal solids were found in the solid residues of a sample ( i ), the molar concentrations of FFA ( CFFA,iexp ) and NIC ( CNIC,iexp ) (μmol/mL) obtained were used to determine the solubility product Ksp,iexp of FFA-NIC cocrystal by2 Ksp,iexp=CFFA,iexp×CNIC,iexp
The optimal solubility product Kspoptimal of FFA-NIC cocrystal is obtained by minimizing the sum square error (SSE) of the optimal value with each of the individual experimental values KSP,iexp .3 Kspoptimal=min∑i=1n(Kspoptimal-ksp,iexp)^2 where n is the total number of vials having the cocrystal solids in the residues.
In this work, the optimal value of Kspopitmal was obtained using the inbuilt “fminbnd” function in MATLAB. If both the FFA-NIC cocrystal and FFA I solids were found in the solid residues of a sample, the measured concentrations of FFA ( CFFAexp ) and NIC ( CNICexp ) were the transition concentrations at the eutectic point.

[2] = Particle size distribution of sieved powders; type: physicochemical; conditions: sieved particles < 250 μm
Procedure: All samples (i.e., FFA, FFA-NIC cocrystal and FFA-TP cocrystal) used in the dissolution tests were slightly ground by a mortar and pestle and sieved by a 60-mesh sieve (below 250 μm) to reduce the influence of particle size on the dissolution rates. The particle size distributions of the test samples were measured using a SYNC Analyzer (MICROTRAC Retsch GmbH, Hann, Germany). The particle size distributions (D10, D50, D90 and mean particle size) of the solid particles were compared. The data were analysed by the Microtrac FLEX software (12.0.0.1).

[3] = DDW with PEG (1 mg/mL) + PVP-VA (0.2 mg/mL)
[4] = DDW with SLP (0.2 mg/mL) + PVP-VA (0.2 mg/mL)
[5] = PBS pH 4.5 with PEG (1 mg/mL) + PVP-VA (0.2 mg/mL)
[6] = PBS pH 4.5 with PVP-VA (0.2 mg/mL)
[7] = PBS pH 4.5 with SLP (0.2 mg/mL)
[8] = PBS pH 4.5 with SLP (0.2 mg/mL) + PVP-VA (0.2 mg/mL)

NC(=O)c1cccnc1.O=C(O)c1ccccc1Nc1cccc(C(F)(F)F)c1 [FFA-NIC cocrystal]
Ratio of FFA concentration at eutectic point with parent drug ([1]; DDW with PEG (1 mg/mL)): 4.47 | Ratio of FFA concentration at eutectic point with parent drug [1, 3]: 7.27 | Ratio of cocrystal solubility with parent drug [1, 3]: 4382.27 | FFA concentration at eutectic point [1, 3]: 0.26 µmol/mL | Ksp [1, 3]: 156.76 μmol^2/mL^2 | SAB [1, 3]: 12.52 µmol/mL | FFA concentration at eutectic point ([1]; DDW with PEG (1 mg/mL)): 0.16 µmol/mL | Ksp ([1]; DDW with PEG (1 mg/mL)): 136.09 μmol^2/mL^2 | SAB ([1]; DDW with PEG (1 mg/mL)): 11.67 µmol/mL | Ratio of FFA concentration at eutectic point with parent drug ([1]; DDW with PVP-VA (0.2 mg/mL)): 23.20 | Ratio of cocrystal solubility with parent drug ([1]; DDW with PVP-VA (0.2 mg/mL)): 4805.23 | FFA concentration at eutectic point ([1]; DDW with PVP-VA (0.2 mg/mL)): 0.83 µmol/mL | Ksp ([1]; DDW with PVP-VA (0.2 mg/mL)): 171.89 μmol^2/mL^2 | SAB ([1]; DDW with PVP-VA (0.2 mg/mL)): 13.11 µmol/mL | Ratio of FFA concentration at eutectic point with parent drug ([1]; DDW with SLP (0.2 mg/mL)): 4.47 | Ratio of cocrystal solubility with parent drug ([1]; DDW with SLP (0.2 mg/mL)): 3218.49 | Ratio of FFA concentration at eutectic point with parent drug [1, 4]: 31.03 | Ratio of cocrystal solubility with parent drug [1, 4]: 6264.77 | FFA concentration at eutectic point [1, 4]: 1.11 µmol/mL | Ksp [1, 4]: 224.10 μmol^2/mL^2 | SAB [1, 4]: 14.97 µmol/mL | FFA concentration at eutectic point ([1]; DDW with SLP (0.2 mg/mL)): 0.16 µmol/mL | Ratio of FFA concentration at eutectic point with parent drug ([1]; DDW, pure solution): 6.71 | Ratio of cocrystal solubility with parent drug ([1]; DDW, pure solution): 2649.04 | FFA concentration at eutectic point ([1]; DDW, pure solution): 0.24 µmol/mL | Ksp ([1]; DDW, pure solution): 94.76 μmol^2/mL^2 | SAB ([1]; DDW, pure solution): 9.73 µmol/mL | Ratio of FFA concentration at eutectic point with parent drug ([1]; PBS pH 4.5, pure solution): 2.46 | Ratio of cocrystal solubility with parent drug ([1]; PBS pH 4.5, pure solution): 1535.91 | FFA concentration at eutectic point ([1]; PBS pH 4.5, pure solution): 0.16 µmol/mL | Ksp ([1]; PBS pH 4.5, pure solution): 99.78 μmol^2/mL^2 | SAB ([1]; PBS pH 4.5, pure solution): 9.99 µmol/mL | Ratio of FFA concentration at eutectic point with parent drug ([1]; PBS pH 4.5 with PEG (1 mg/mL)): 4.93 | Ratio of cocrystal solubility with parent drug ([1]; PBS pH 4.5 with PEG (1 mg/mL)): 1601.02 | Ratio of FFA concentration at eutectic point with parent drug [1, 5]: 10.16 | Ratio of cocrystal solubility with parent drug [1, 5]: 2171.41 | FFA concentration at eutectic point [1, 5]: 0.66 µmol/mL | Ksp [1, 5]: 141.26 μmol^2/mL^2 | SAB [1, 5]: 11.89 µmol/mL | FFA concentration at eutectic point ([1]; PBS pH 4.5 with PEG (1 mg/mL)): 0.32 µmol/mL | Ksp ([1]; PBS pH 4.5 with PEG (1 mg/mL)): 104.01 μmol^2/mL^2 | SAB ([1]; PBS pH 4.5 with PEG (1 mg/mL)): 10.20 µmol/mL | Ratio of FFA concentration at eutectic point with parent drug [1, 6]: 6.93 | Ratio of cocrystal solubility with parent drug [1, 6]: 2040.80 | FFA concentration at eutectic point [1, 6]: 0.45 µmol/mL | Ksp [1, 6]: 132.58 μmol^2/mL^2 | SAB [1, 6]: 11.51 µmol/mL | Ratio of FFA concentration at eutectic point with parent drug [1, 7]: 2.46 | Ratio of cocrystal solubility with parent drug [1, 7]: 1772.19 | Ratio of FFA concentration at eutectic point with parent drug [1, 8]: 10.16 | Ratio of cocrystal solubility with parent drug [1, 8]: 2443.18 | FFA concentration at eutectic point [1, 8]: 0.66 µmol/mL | Ksp [1, 8]: 158.72 μmol^2/mL^2 | SAB [1, 8]: 12.60 µmol/mL | FFA concentration at eutectic point [1, 7]: 0.16 µmol/mL | potential increase in the FFA solubility based on FFA concentration at eutectic point ([1]; in DDW): 30 fold | potential increase in the FFA solubility based on FFA concentration at eutectic point ([1]; in PBS pH 4.5): tenfold | increase of the FFA solubility achieved by cocrystal (by Eq. 1 cocrystal solubility) ([1]; in some cases, Table III): > 1000 fold | D10 [2]: 6.08 μm | D50 [2]: 13.77 μm | D90 [2]: 33.97 μm | Mean particle size [2]: 17.63 μm
